Test results published in ChEMBL document CHEMBL1138176, “Synthesis and structure-activity relationship of small-molecule malonyl coenzyme A decarboxylase inhibitors” (J Med Chem, 2006).
≈ marks a conversion by molar mass, not a printed value. Calls of active or inactive are those of the source. No cut-off for these calls is given here.

System: not listed separately
Experiment: Caco-2 cell membrane permeability
Conditions: human

Row | Structure (SMILES) | Papp [×10⁻⁶ cm/s]
1 | CCN(C(=O)c1ccc(C#N)cc1)c1ccc(C(O)(C(F)(F)F)C(F)(F)F)cc1 | 38.7
2 | CCN(C(=O)N1CCOCC1)c1ccc(C(O)(C(F)(F)F)C(F)(F)F)cc1 | 68.2
3 | CCN(CCCCO)C(=O)N(CC)c1ccc(C(O)(C(F)(F)F)C(F)(F)F)cc1 | 49.4

System: not listed separately
Experiment: Stability in rat liver microsomes at 5 uM
Conditions: not given

Row | Structure (SMILES) | remaining at 5 µM [%]
4 | CCN(C(=O)c1ccc(C#N)cc1)c1ccc(C(O)(C(F)(F)F)C(F)(F)F)cc1 | 66
5 | CCN(C(=O)N1CCOCC1)c1ccc(C(O)(C(F)(F)F)C(F)(F)F)cc1 | 9
6 | O=C(O)CCCCN(C(=O)N1CCOCC1)c1ccc(C(O)(C(F)(F)F)C(F)(F)F)cc1 | 108
7 | CCN(CCCCO)C(=O)N(CC)c1ccc(C(O)(C(F)(F)F)C(F)(F)F)cc1 | 7

System: not listed separately
Experiment: Solubility in PBS at pH 7.4
Conditions: not given

Row | Structure (SMILES) | solubility [µM]
8 | CCN(C(=O)c1ccc(C#N)cc1)c1ccc(C(O)(C(F)(F)F)C(F)(F)F)cc1 | 8.7 (≈ 3.62 µg/mL)
9 | CCN(C(=O)N1CCOCC1)c1ccc(C(O)(C(F)(F)F)C(F)(F)F)cc1 | 189 (≈ 75.8 µg/mL)
10 | O=C(O)CCCCN(C(=O)N1CCOCC1)c1ccc(C(O)(C(F)(F)F)C(F)(F)F)cc1 | 206 (≈ 97.1 µg/mL)
11 | CCN(CCCCO)C(=O)N(CC)c1ccc(C(O)(C(F)(F)F)C(F)(F)F)cc1 | 187 (≈ 80.6 µg/mL)

Species on record: Sus scrofa
Experiment: Decrease in lactate production in ischemic pig heart
Type: functional, organism-based
Conditions: not given

Row | Structure (SMILES) | Activity
12 | COC(=O)CCCCN(C(=O)N1CCOCC1)c1ccc(C(O)(C(F)(F)F)C(F)(F)F)cc1 | Active

Target: T1, Malonyl-CoA decarboxylase, mitochondrial (Homo sapiens, UniProt O95822)
T1 sequence (O95822 whole entry): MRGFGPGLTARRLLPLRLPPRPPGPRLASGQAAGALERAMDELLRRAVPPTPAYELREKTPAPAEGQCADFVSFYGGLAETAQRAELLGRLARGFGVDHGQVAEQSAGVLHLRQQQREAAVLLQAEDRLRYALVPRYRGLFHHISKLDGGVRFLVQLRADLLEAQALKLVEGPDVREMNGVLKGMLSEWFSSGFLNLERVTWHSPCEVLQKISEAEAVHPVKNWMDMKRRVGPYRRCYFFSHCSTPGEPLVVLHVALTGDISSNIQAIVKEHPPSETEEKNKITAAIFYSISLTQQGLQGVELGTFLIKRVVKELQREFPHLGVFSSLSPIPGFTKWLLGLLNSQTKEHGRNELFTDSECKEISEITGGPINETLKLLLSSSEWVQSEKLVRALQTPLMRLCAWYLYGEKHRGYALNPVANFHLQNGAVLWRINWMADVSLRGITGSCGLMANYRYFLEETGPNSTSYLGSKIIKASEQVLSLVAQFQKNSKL
Experiment: Inhibition of MCD at 10 uM
Conditions: not given

Row | Structure (SMILES) | IC50
13 | O=C(Nc1ccccc1)Nc1ccc(C(O)(C(F)(F)F)C(F)(F)F)cc1 | Not Active
14 | O=C(Nc1ccc(C(O)(C(F)(F)F)C(F)(F)F)cc1)N1CCOCC1 | Not Active
15 | CC(C)C(=O)Nc1ccc(C(O)(C(F)(F)F)C(F)(F)F)cc1 | Not Active

System: not listed separately
Experiment: Stability in human liver microsomes at 5 uM
Conditions: not given

Row | Structure (SMILES) | remaining at 5 µM [%]
16 | CCN(C(=O)c1ccc(C#N)cc1)c1ccc(C(O)(C(F)(F)F)C(F)(F)F)cc1 | 93
17 | CCN(C(=O)N1CCOCC1)c1ccc(C(O)(C(F)(F)F)C(F)(F)F)cc1 | 87
18 | O=C(O)CCCCN(C(=O)N1CCOCC1)c1ccc(C(O)(C(F)(F)F)C(F)(F)F)cc1 | 99
19 | CCN(CCCCO)C(=O)N(CC)c1ccc(C(O)(C(F)(F)F)C(F)(F)F)cc1 | 51
